Measurements as given in patent US20110152166A1, “METHOD OF MODULATION OF PROTEIN PHOSPHORYLATION-DEPENDENT CONFORMATIONAL TRANSITIONS WITH LOW MOLECULAR WEIGHT COMPOUNDS” (priority 2006, published 2011).

Legend:
[1] = tested on: GST-S6K1-T2[Thr412Ala] in HEK 293 cells; assay: S6K activation loop phosphorylation in transfected HEK 293 cells; assay type: cell-based, human; conditions: 200 μM, 90 minutes
Method: FIG. 4—Small compounds designed to bind the HM/PIF-pocket of PDK1 can block the PDK1-dependent phosphorylation and activation of substrates that require docking to the HM/PIF-pocket of PDK1. (A) Effect of compound 1 (100 and 200 μM) on PDK1 phosphorylation of its substrate S6K1. The phosphorylation reaction was performed in vitro with [γ^32P]ATP and then separated on SDS-PAGE followed by exposure to phosphorimager. The radioactive band corresponding to phosphorylated GST-56K1-T2[Thr412Glu] (S6K[412E]) is indicated. (B) PDK1 or PDK1[Val127Leu] (PDK1[V127L]) were pre-incubated with GST-[…]N-SGK1 [Ser422Asp] […] (C) The activity of S6K was measured in vitro after glutathione sepharose purification; aliquots of purified proteins were separated on SDS-PAGE and the level of activation loop phosphorylation was visualized by immunoblotting using phospho-specific antibodies that recognize the phosphorylated activation loop, followed by stripping of the membranes and re-probing with anti-GST to verify the presence of equal amounts of protein. (D) Cells overexpressing GST-56K1-T2[Thr412Glu] were treated as in (C) but S6K activity was measured in vitro after immunoprecipitation of the GST-fusion protein with anti-GST antibodies; the level of S6K expression was analysed by western-blotting of crude extracts. […]

PDK150-360 = molecular target: T1, PDK150-360 (Homo sapiens, UniProt O15530); assay: Surface plasmon resonance, PDK1 binding to S6K tail peptides
T1 construct: the catalytic domain of PDK1 comprising residues 50-360
T1 sequence (O15530 50-360): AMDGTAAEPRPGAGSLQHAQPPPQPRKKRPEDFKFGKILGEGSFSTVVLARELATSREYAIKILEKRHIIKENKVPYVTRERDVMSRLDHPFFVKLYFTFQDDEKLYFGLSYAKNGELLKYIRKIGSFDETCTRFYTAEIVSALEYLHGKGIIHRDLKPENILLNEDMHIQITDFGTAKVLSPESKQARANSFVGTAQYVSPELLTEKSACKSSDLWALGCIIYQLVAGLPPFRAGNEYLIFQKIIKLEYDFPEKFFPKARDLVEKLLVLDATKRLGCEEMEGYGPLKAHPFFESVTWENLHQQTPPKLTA
Method: FIG. 21 (A) Aliquots of S6K1 protein from bar 1, 2, 5 and 6 in FIG. 5B were subjected to immunoblotting with phosphorylation site specific Ab against the activation loop or anti-HA Ab. (B) The kinase activity of PKB<143-479, prephosphorylated by PDK1 in the activation loop, was determined in the presence of increasing concentrations of synthetic PRK2 tail peptides encompassing the HM, which were either nonphosphorylated (PIFtide) or phosphorylated at the tail site (pT958-PIFtide). […] (C) The kinase activity of purified PDK1 was determined in the presence of increasing concentrations of synthetic S6K tail peptide (residues 366-395) that was either phosphorylated at T389 (S371/pT389) or phosphorylated at both 5389 and 5371 (pS371/pT389). Kinase activity is expressed as percent, and data are means+/−SD of 3 independent experiments. (D) Synthetic S371/pT389 S6K tail peptide and pS371/pT389 S6K tail peptide were biotinylated and used to coat streptavidin Sensor Chips. PDK150-360 was injected at different concentrations (0.05-5.4 mM) onto the peptide coated chips. In the inserts, the kinetic constants were obtained by fitting the data to a hyperbola using kaleidagraph software. Representative results from one of several experiments are shown.
BiaCore analysis was performed as described in Biondi et al. (2000). […]

Compound	activation loop phosphorylation of S6K1-T2[Thr412Ala] (in words) [1]	binding of PDK1 to tail peptide (in words) (PDK150-360)
O=C(O)CSC(CC(=O)c1ccc(Cl)cc1)c1ccccc1 (centres unmarked) [Compound 1]	significantly decreased	
S371/pT389: synthetic S6K1 tail peptide (residues 366-395) phosphorylated in the HM		bound equally well
